Data taken from PubChem BioAssay (NCI).
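Cultured in 96-well plates, cells were exposed to test compound for 48 hours across five concentrations. Abbreviation: GI50, concentration required for 50% inhibition of growth. At the TGI there is no net growth.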

Tests used:
Experiment in all cases: inhibition of tumour cell growth, NCI panel, 48 h
[1] = test system: HS 578T breast
[2] = test system: HL-60(TB) leukemia
[3] = test system: PC-3 prostate
[4] = test system: SNB-19 CNS
[5] = test system: TK-10 renal
[6] = test system: HCC-2998 colon
[7] = test system: UACC-62 melanoma
[8] = test system: HOP-62 NSCLC
[9] = test system: SF-539 CNS
[10] = test system: MALME-3M melanoma
[11] = test system: DU-145 prostate
[12] = test system: SK-OV-3 ovarian
[13] = test system: UACC-257 melanoma
[14] = test system: OVCAR-8 ovarian
[15] = test system: BT-549 breast
[16] = test system: IGROV1 ovarian
[17] = test system: SR leukemia
[18] = test system: SF-268 CNS
[19] = test system: NCI/ADR-RES ovarian
[20] = test system: SW-620 colon
[21] = test system: K-562 leukemia
[22] = test system: RPMI-8226 leukemia
[23] = test system: NCI-H23 lung
[24] = test system: NCI-H460 lung
[25] = test system: LOX IMVI melanoma
[26] = test system: HOP-92 NSCLC
[27] = test system: T-47D breast
[28] = test system: KM12 colon
[29] = test system: A549 NSCLC
[30] = test system: CAKI-1 renal
[31] = test system: SK-MEL-5 melanoma
[32] = test system: EKVX NSCLC
[33] = test system: MDA-MB-435
[34] = test system: HCT-116 colon
[35] = test system: MCF7 breast
[36] = test system: ACHN renal
[37] = test system: RXF 393 renal
[38] = test system: M14 melanoma
[39] = test system: NCI-H226 lung
[40] = test system: CCRF-CEM leukemia
[41] = test system: MOLT-4 leukemia
[42] = test system: HCT-15 colon
[43] = test system: HT29 colon
[44] = test system: UO-31 renal
[45] = test system: SNB-75 CNS
[46] = test system: MDA-MB-231 breast
[47] = test system: SK-MEL-28 melanoma
[48] = test system: NCI-H522 lung
[49] = test system: OVCAR-5 ovarian
[50] = test system: OVCAR-4 ovarian
[51] = test system: SF-295 CNS
[52] = test system: OVCAR-3 ovarian
[53] = test system: SN12C renal
[54] = test system: U251 CNS
[55] = test system: 786-0 renal
[56] = test system: SK-MEL-2 melanoma
[57] = test system: COLO 205 colon

With `CC1=NN(c2nc(N)nc(/C=C\c3ccc([N+](=O)[O-])s3)n2)C(C)(C)C1` the GI50 [1] was over 100 µM, the TGI [1] was over 100 µM and the GI50 [2] was over 100 µM. The TGI [2] was over 100 µM, the GI50 [3] was over 100 µM and the TGI [3] was over 100 µM. It also gave a GI50 [4] of over 100 µM, a TGI [4] of over 100 µM and a GI50 [5] of over 100 µM. The TGI [5] was over 100 µM, the GI50 [6] was over 100 µM and the TGI [6] was over 100 µM. It also gave a GI50 [7] of over 100 µM, a TGI [7] of over 100 µM and a GI50 [8] of over 100 µM. For the same compound, the TGI [8] was over 100 µM, the GI50 [9] was over 100 µM and the TGI [9] was over 100 µM. The GI50 [10] was over 100 µM, the TGI [10] was over 100 µM and the GI50 [11] was over 100 µM. The TGI [11] was over 100 µM, the GI50 [12] was over 100 µM and the TGI [12] was over 100 µM. It also gave a GI50 [13] of over 100 µM, a TGI [13] of over 100 µM and a GI50 [14] of over 100 µM. For the same compound, the TGI [14] was over 100 µM, the GI50 [15] was over 100 µM and the TGI [15] was over 100 µM. It also gave a GI50 [16] of over 100 µM, a TGI [16] of over 100 µM and a GI50 [17] of 49.9 µM. For the same compound, the TGI [17] was over 100 µM, the GI50 [18] was over 100 µM and the TGI [18] was over 100 µM. The GI50 [19] was over 100 µM, the TGI [19] was over 100 µM and the GI50 [20] was over 100 µM. It also gave a TGI [20] of over 100 µM, a GI50 [21] of 40.9 µM and a TGI [21] of over 100 µM. The GI50 [22] was over 100 µM, the TGI [22] was over 100 µM and the GI50 [23] was over 100 µM. For the same compound, the TGI [23] was over 100 µM, the GI50 [24] was over 100 µM and the TGI [24] was over 100 µM. The GI50 [25] was over 100 µM, the TGI [25] was over 100 µM and the GI50 [26] was over 100 µM. The TGI [26] was over 100 µM, the GI50 [27] was over 100 µM and the TGI [27] was over 100 µM. For the same compound, the GI50 [28] was over 100 µM, the TGI [28] was over 100 µM and the GI50 [29] was over 100 µM. The TGI [29] was over 100 µM, the GI50 [30] was over 100 µM and the TGI [30] was over 100 µM. The GI50 [31] was 40.9 µM, the TGI [31] was over 100 µM and the GI50 [32] was over 100 µM. It also gave a TGI [32] of over 100 µM, a GI50 [33] of 62.8 µM and a TGI [33] of over 100 µM. For the same compound, the GI50 [34] was over 100 µM, the TGI [34] was over 100 µM and the GI50 [35] was over 100 µM. It also gave a TGI [35] of over 100 µM, a GI50 [36] of over 100 µM and a TGI [36] of over 100 µM. For the same compound, the GI50 [37] was over 100 µM, the TGI [37] was over 100 µM and the GI50 [38] was over 100 µM. It also gave a TGI [38] of over 100 µM, a GI50 [39] of over 100 µM and a TGI [39] of over 100 µM. For the same compound, the GI50 [40] was 77.5 µM, the TGI [40] was over 100 µM and the GI50 [41] was over 100 µM. The TGI [41] was over 100 µM, the GI50 [42] was over 100 µM and the TGI [42] was over 100 µM. For the same compound, the GI50 [43] was 56.4 µM, the TGI [43] was over 100 µM and the GI50 [44] was over 100 µM. It also gave a TGI [44] of over 100 µM, a GI50 [45] of 29.9 µM and a TGI [45] of over 100 µM. It also gave a GI50 [46] of over 100 µM, a TGI [46] of over 100 µM and a GI50 [47] of over 100 µM. For the same compound, the TGI [47] was over 100 µM, the GI50 [48] was over 100 µM and the TGI [48] was over 100 µM. It also gave a GI50 [49] of over 100 µM, a TGI [49] of over 100 µM and a GI50 [50] of over 100 µM. For the same compound, the TGI [50] was over 100 µM, the GI50 [51] was over 100 µM and the TGI [51] was over 100 µM. For the same compound, the GI50 [52] was over 100 µM, the TGI [52] was over 100 µM and the GI50 [53] was over 100 µM. It also gave a TGI [53] of over 100 µM, a GI50 [54] of over 100 µM and a TGI [54] of over 100 µM. The GI50 [55] was over 100 µM, the TGI [55] was over 100 µM and the GI50 [56] was over 100 µM. It also gave a TGI [56] of over 100 µM, a GI50 [57] of over 100 µM and a TGI [57] of over 100 µM.
